SMILES strings stand for the structures.

Assay [1] has as its target T1, Muscarinic acetylcholine receptor M1 (Homo sapiens, UniProt P11229).
T1 sequence (P11229 whole entry): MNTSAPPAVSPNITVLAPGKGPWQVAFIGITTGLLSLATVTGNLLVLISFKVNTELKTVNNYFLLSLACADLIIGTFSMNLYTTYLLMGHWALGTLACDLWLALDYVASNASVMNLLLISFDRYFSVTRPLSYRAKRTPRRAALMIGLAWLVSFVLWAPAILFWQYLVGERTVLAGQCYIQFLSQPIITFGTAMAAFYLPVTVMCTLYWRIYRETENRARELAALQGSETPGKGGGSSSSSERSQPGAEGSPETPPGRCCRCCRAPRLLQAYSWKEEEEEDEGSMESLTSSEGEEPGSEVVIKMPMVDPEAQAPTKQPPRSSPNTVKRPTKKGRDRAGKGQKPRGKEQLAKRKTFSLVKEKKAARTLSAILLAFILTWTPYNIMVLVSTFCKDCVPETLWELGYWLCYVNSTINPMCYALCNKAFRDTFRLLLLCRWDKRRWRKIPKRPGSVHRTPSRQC
The experiment in a line: Displacement of [3H]NMS from human muscarinic M1 receptor expressed in CHO-K1 cells after 1 hr by scintillation counting. It counts as cell-based.

The target of assay [2] is Muscarinic acetylcholine receptors; M2 & M3 (Homo sapiens) (UniProt P20309+P08172). The experiment in a line: Selectivity ratio of IC50 for human muscarinic M2 receptor to IC50 for human muscarinic M3 receptor.
Muscarinic acetylcholine receptors; M2 & M3 (Homo sapiens), sequence (P20309 whole entry, looked up, one chain of several): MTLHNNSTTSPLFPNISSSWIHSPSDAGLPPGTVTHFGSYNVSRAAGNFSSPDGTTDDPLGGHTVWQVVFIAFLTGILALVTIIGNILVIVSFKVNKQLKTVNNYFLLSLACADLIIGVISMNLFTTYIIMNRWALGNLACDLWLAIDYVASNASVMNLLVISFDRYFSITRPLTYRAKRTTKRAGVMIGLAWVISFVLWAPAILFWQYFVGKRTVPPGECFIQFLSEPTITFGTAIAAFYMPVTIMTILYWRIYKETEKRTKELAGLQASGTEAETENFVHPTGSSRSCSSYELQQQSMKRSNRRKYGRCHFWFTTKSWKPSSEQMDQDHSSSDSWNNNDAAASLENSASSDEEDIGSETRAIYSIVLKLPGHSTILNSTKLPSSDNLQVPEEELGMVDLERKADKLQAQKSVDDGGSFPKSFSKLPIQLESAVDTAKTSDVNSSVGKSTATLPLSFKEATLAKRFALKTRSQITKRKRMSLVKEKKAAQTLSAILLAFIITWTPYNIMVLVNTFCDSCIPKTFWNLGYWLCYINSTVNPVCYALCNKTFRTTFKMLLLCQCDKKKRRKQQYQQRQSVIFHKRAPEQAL
In assay [3] the target is Muscarinic acetylcholine receptor M3 (Homo sapiens, UniProt P20309). Description: Displacement of [3H]NMS from human muscarinic M3 receptor expressed in CHO-K1 cells after 1 hr by scintillation counting. The assay is classed as cell-based.
Muscarinic acetylcholine receptor M3, sequence (P20309 whole entry): as the sequence (P20309 whole entry, looked up, one chain of several) above
The target in assay [4] is Muscarinic acetylcholine receptor M1 and M3 (Homo sapiens) (UniProt P20309+P11229). The experiment in a line: Selectivity ratio of IC50 for human muscarinic M1 receptor to IC50 for human muscarinic M3 receptor.
Muscarinic acetylcholine receptor M1 and M3 (Homo sapiens), sequence (P20309 whole entry, looked up, one chain of several): as above
Assay [5] concerns the target T2, Muscarinic acetylcholine receptor M2 (Homo sapiens, UniProt P08172).
T2 sequence (P08172 whole entry): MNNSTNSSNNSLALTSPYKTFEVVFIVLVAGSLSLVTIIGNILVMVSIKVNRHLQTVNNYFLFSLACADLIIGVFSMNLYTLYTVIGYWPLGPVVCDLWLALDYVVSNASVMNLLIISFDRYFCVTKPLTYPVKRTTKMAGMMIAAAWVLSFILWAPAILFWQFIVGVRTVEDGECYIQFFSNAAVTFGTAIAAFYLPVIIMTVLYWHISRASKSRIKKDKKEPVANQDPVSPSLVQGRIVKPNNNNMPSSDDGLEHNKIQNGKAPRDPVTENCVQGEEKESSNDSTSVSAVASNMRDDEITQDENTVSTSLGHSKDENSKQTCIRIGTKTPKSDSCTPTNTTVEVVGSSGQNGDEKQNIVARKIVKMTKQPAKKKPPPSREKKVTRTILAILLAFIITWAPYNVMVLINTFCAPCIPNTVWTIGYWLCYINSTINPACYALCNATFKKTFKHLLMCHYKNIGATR
The experiment in a line: Displacement of [3H]NMS from human muscarinic M2 receptor expressed in CHO-K1 cells after 1 hr by scintillation counting. It counts as cell-based. (Displacement assays read how much labelled ligand stays bound in the presence of the test substance.)

The next assay has as its system Cavia porcellus. Description: Inhibition of acetylcholine-induced bronchospasm in anesthetized Dunkin-Hartley guinea pig assessed as time required to recover 50% of maximum inhibitory effect at 1 mg/ml administered via nebulizer. It counts as functional.

For the compound `O=C(O[C@H]1CN2CCC1CC2)N(c1ccccc1)c1ccccc1`, the IC50 in assay [1] worked out at 319 nM; in assay [3] it was 797 nM; in assay [5], 2780 nM. Also, the Ratio IC50 in assay [2] worked out at 3.5; in assay [4] it was 0.4.

With `Cc1ccc(N(Cc2ccccc2)C(=O)O[C@H]2CN3CCC2CC3)cc1`, the concentration for half-maximal inhibition (IC50) came to 39.7 nM in assay [1], 74.7 nM in assay [3] and 196 nM in assay [5]. Moreover, the figures for the Ratio IC50 in assay [2] and in assay [4] were 2.6 and 0.5, respectively.

In the case of `O=C(O[C@H]1C[N+]2(CCCc3cccs3)CCC1CC2)N(Cc1cccs1)c1ccccc1.[Br-]`, the IC50 in assay [1] came to 1.6 nM; in assay [3] it was 0.5 nM; in assay [5], 3.2 nM. Also, the Ratio IC50 was 6.4 in assay [2] and 3.2 in assay [4]. Besides, the Time in the assay with Cavia porcellus is above 6 h.

For the compound `Cc1cccc(N(Cc2cc(F)c(F)cc2F)C(=O)O[C@H]2C[N+]3(CCOc4ccccc4)CCC2CC3)c1.[Br-]`, the IC50 was 2.4 nM in assay [1], 1.2 nM in assay [3] and 28 nM in assay [5]. Moreover, the Ratio IC50 in assay [2] is 23.3; in assay [4] it was 2. The Time with Cavia porcellus was below 6 h.

On to `CCCN(C(=O)O[C@H]1CN2CCC1CC2)c1ccccc1`, for which the half-maximal inhibitory concentration (IC50) in assay [1] was found to be 26.7 nM; in assay [3] it was 71.1 nM; in assay [5], 349 nM. In addition, the Ratio IC50 was 4.9 in assay [2] and 0.4 in assay [4].

On to `O=C(O[C@H]1CN2CCC1CC2)N(Cc1cccs1)Cc1cccs1`, for which the results for the IC50 in assay [1], in assay [3] and in assay [5] were 2.4 nM, 5.9 nM and 22.7 nM, respectively. For the same compound, the Ratio IC50 in assay [2] was found to be 3.8; in assay [4] it was 0.4.

For `Cc1cccc(N(Cc2cc(F)c(F)cc2F)C(=O)O[C@H]2C[N+]3(CCCc4ccccc4)CCC2CC3)c1.[Br-]`, the concentration for half-maximal inhibition (IC50) in assay [1] worked out at 3 nM; in assay [3], 0.9 nM; in assay [5], 29.8 nM. Further, the Ratio IC50 in assay [2] was 33.1; in assay [4] it was 3.3. Also, the Time in the assay on Cavia porcellus was below 6 h.

For `O=C(O[C@H]1C[N+]2(CCOc3ccccc3)CCC1CC2)N(Cc1ccccc1)c1ccccc1.[Br-]`, the values for the IC50 in assay [1], in assay [3] and in assay [5] were 1.7 nM, 1 nM and 3.9 nM, respectively. The Ratio IC50 turned out to be 3.9 in assay [2] and 1.7 in assay [4]. Besides, the Time in the assay on Cavia porcellus was above 6 h.

In the case of `CC(C)N(C(=O)O[C@H]1CN2CCC1CC2)c1ccccc1`, the IC50 in assay [1] turned out to be 428 nM; in assay [3], 659 nM; in assay [5], 1360 nM. The Ratio IC50 in assay [2] was found to be 2.1; in assay [4], 0.6.

For the compound `O=C(O[C@H]1C[N+]2(CCOc3ccccc3)CCC1CC2)N(Cc1cccs1)c1ccccc1.[Br-]`, the IC50 in assay [1] was found to be 0.4 nM; in assay [3] it was 0.3 nM; in assay [5] it was 1.1 nM. Moreover, the Ratio IC50 amounted to 3.7 in assay [2] and 1.3 in assay [4]. The Time in the assay with Cavia porcellus is above 6 h.

For the compound `CCCCN(Cc1cccs1)C(=O)O[C@H]1CN2CCC1CC2`, the results for the 50% inhibitory concentration (IC50) in assay [1], in assay [3] and in assay [5] were 0.8 nM, 17.7 nM and 76.2 nM, respectively. The Ratio IC50 is 4.3 in assay [2] and 0.04 in assay [4].

For the compound `O=C(O[C@H]1C[N+]2(CCCc3ccccc3)CCC1CC2)N(Cc1ccccc1)c1ccccc1.[Br-]`, the results for the concentration for half-maximal inhibition (IC50) in assay [1], in assay [3] and in assay [5] were 1.5 nM, 0.3 nM and 4 nM, respectively. The Ratio IC50 in assay [2] was 13.3; in assay [4] it was 5. In the assay with Cavia porcellus, the Time is above 6 h.

Consider `O=C(O[C@H]1CN2CCC1CC2)N(Cc1ccccc1)c1ccc(F)cc1`, for which the IC50 in assay [1] was found to be 8.3 nM; in assay [3], 15 nM; in assay [5], 116 nM. For the same compound, the Ratio IC50 in assay [2] came to 7.7; in assay [4] it was 0.5.

As for `O=C(Nc1ccccc1-c1ccccc1)OC12CCN(CC1)CC2`, the IC50 in assay [1] is 3 nM; in assay [3], 6 nM; in assay [5] it was 14.5 nM. In addition, the figures for the Ratio IC50 in assay [2] and in assay [4] were 2.4 and 0.5, respectively.

Take `O=C(O[C@H]1C[N+]2(CCCc3cccs3)CCC1CC2)N(Cc1ccccc1)c1ccccc1.[Br-]`: the IC50 amounted to 1.4 nM in assay [1], 0.6 nM in assay [3] and 7.6 nM in assay [5]. In addition, the figures for the Ratio IC50 in assay [2] and in assay [4] were 12.7 and 2.3, respectively. For the same compound, the Time in the assay with Cavia porcellus is above 6 h.

With `CCCCN(C(=O)O[C@H]1C[N+]2(CCCc3ccccc3)CCC1CC2)c1ccccc1`, the IC50 stood at 2.5 nM in assay [1], 0.8 nM in assay [3] and 17.7 nM in assay [5]. The Ratio IC50 in assay [2] worked out at 22.1; in assay [4] it was 3.1.

Turning to `O=C(O[C@H]1CN2CCC1CC2)N(Cc1cccs1)c1ccccc1`, the IC50 is 0.4 nM in assay [1], 0.6 nM in assay [3] and 1.8 nM in assay [5]. The results for the Ratio IC50 in assay [2] and in assay [4] were 3 and 0.7, respectively. Besides, in the assay with Cavia porcellus, the Time was below 4 h.

On to `O=C(O[C@H]1CN2CCC1CC2)N(Cc1cc(F)c(F)c(F)c1)c1cccc(F)c1` [TARAFENACIN], for which the IC50 in assay [1] amounted to 0.9 nM; in assay [3] it was 1.5 nM; in assay [5], 97.3 nM. In addition, the Ratio IC50 was determined as 64.9 in assay [2] and 0.6 in assay [4].

Regarding `CCCCCN(C(=O)O[C@H]1CN2CCC1CC2)c1ccccc1`, the IC50 is 0.8 nM in assay [1], 1.7 nM in assay [3] and 13.6 nM in assay [5]. Further, the Ratio IC50 in assay [2] was 8; in assay [4] it was 0.5.

Regarding `O=C(O[C@H]1CN2CCC1CC2)N(Cc1cccc(F)c1)c1cccc(F)c1`, the half-inhibitory concentration (IC50) was determined as 1.5 nM in assay [1], 2.4 nM in assay [3] and 26.8 nM in assay [5]. Also, the results for the Ratio IC50 in assay [2] and in assay [4] were 11.2 and 0.6, respectively.

For the compound `O=C(O[C@H]1CN2CCC1CC2)N1CCc2ccccc2[C@@H]1c1ccccc1` [SOLIFENACIN SUCCINATE], the half-maximal inhibitory concentration (IC50) turned out to be 63.5 nM in assay [1], 131 nM in assay [3] and 574 nM in assay [5]. Also, the Ratio IC50 in assay [2] was 4.4; in assay [4] it was 0.5.

`O=C(O[C@H]1CN2CCC1CC2)N(CCc1ccccc1)c1ccccc1`: the concentration for half-maximal inhibition (IC50) in assay [1] stood at 1 nM; in assay [3], 3.6 nM; in assay [5], 42.1 nM. Besides, the Ratio IC50 in assay [2] was 11.7; in assay [4], 0.3.

On to `C[N+]12CCC(CC1)[C@@H](OC(=O)N(Cc1cccs1)c1ccccc1)C2`, for which the figures for the half-maximal inhibitory concentration (IC50) in assay [1], in assay [3] and in assay [5] were 9.2 nM, 18.6 nM and 33.1 nM, respectively. For the same compound, the Ratio IC50 stood at 1.8 in assay [2] and 0.5 in assay [4].

Consider `CCCCN(C(=O)O[C@H]1C[N+]2(CCc3ccccc3)CCC1CC2)c1ccccc1`, for which the IC50 in assay [1] was found to be 33.3 nM; in assay [3], 19 nM; in assay [5], 121 nM. For the same compound, the Ratio IC50 came to 6.3 in assay [2] and 1.7 in assay [4].

`O=C(O[C@H]1CN2CCC1CC2)N(Cc1ccccc1)Cc1cccs1`: the IC50 in assay [1] is 8.8 nM; in assay [3] it was 22.5 nM; in assay [5], 88.9 nM. Moreover, the results for the Ratio IC50 in assay [2] and in assay [4] were 3.95 and 0.4, respectively.

As to `Cc1cccc(N(Cc2cc(F)c(F)cc2F)C(=O)O[C@H]2CN3CCC2CC3)c1`, the figures for the IC50 in assay [1], in assay [3] and in assay [5] were 1 nM, 1.4 nM and 45.8 nM, respectively. Moreover, the Ratio IC50 in assay [2] is 32.7; in assay [4], 0.7.

Usually IC50 stands for the midpoint of a concentration-inhibition curve. A high value points to a need for much substance.

The values are drawn from ChEMBL document CHEMBL1777779, “Discovery of novel quaternary ammonium derivatives of (3R)-quinuclidinyl carbamates as potent and long acting muscarinic antagonists” (Bioorg Med Chem Lett, 2011).
